System: sulfate-reducing bacterial (SRB) consortium
Experiment: Inhibition of sulfate reduction and sulfide production in SRB cultures for one month (MIC and biocide/metabolic inhibitor combinations)
Type: cell-based, sulfate-reducing bacteria (Coleville SRB enrichment)
Conditions: 720 h; minimum concentration necessary to prevent sulfide production by SRB for 30 days after contact; compound alone; certain test conditions; read-out: minimum inhibitory concentration (MIC)
Experimental: The sulfate-reducing bacterial (SRB) consortium used in this study was enriched from produced water obtained from the Coleville oil field near Kindersely, Sadkatchewan, Canada. […] The SRB consortium was maintained by weekly transfer in sPGC medium, and incubated at 30° C. […] The sPGC contained the following components per 1 liter of distilled water: 7 g NaCl; 1.2 g MgCl26H2O; 0.5 g KH2PO4; 1 g NH4Cl; 4.5 g Na2SO4; 0.042 g CaCl22H2O; 0.03 g MgSO47H2O; 0.004 g FeSO47H2O; 0.28 g sodium citrate; 10 g 60% sodium lactate; 1 g yeast extract; and a trace amount of rezazurin.
The cultures used in this study were grown in 100 mL of modified Coleville synthetic brine medium (mCSB) in 160-ml serum bottles, with a headspace of 5% H2, 10% CO2 balance N2. […]
Sulfate was measured using the turbidimetric method described in: American Public Health Association, Standard Methods for the Examination of Water and Wastewater. […]
For each biocide and metabolic inhibitor tested, the minimum inhibitory concentration (MIC; the minimum amount of biocide required to inhibit sulfate reduction and sulfide production in the SRB culture for one month) was determined.

O=CCCCC=O [glutaraldehyde]
MIC: 5 mM

Reference: US7833551B2, “Inhibition of biogenic sulfide production via biocide and metabolic inhibitor combination” (ConocoPhillips Company, priority 2004, dated 2010)
